Experiment [1] addresses T1, hCES2A (Homo sapiens, UniProt O00748).
T1 sequence (O00748 27-559): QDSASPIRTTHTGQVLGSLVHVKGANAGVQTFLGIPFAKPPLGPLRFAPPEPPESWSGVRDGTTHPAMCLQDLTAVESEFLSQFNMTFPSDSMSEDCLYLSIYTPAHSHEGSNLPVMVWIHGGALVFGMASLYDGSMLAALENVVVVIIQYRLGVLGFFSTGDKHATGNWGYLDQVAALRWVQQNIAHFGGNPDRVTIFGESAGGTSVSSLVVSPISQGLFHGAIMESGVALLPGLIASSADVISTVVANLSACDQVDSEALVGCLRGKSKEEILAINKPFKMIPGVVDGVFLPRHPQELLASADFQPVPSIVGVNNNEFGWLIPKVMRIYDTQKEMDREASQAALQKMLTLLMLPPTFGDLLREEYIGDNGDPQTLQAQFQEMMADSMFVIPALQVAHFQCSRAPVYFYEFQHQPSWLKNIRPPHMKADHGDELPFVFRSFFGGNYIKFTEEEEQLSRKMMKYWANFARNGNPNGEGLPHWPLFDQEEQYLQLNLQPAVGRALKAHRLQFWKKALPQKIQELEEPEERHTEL
Put plainly: hCES2A inhibition assay. Format: biochemical. The settings on record: for Ratio: IC50 3 min / IC50 33 min.

A further experiment concerns the target hAChE (Homo sapiens, UniProt P22303). The experiment can be described thus: hAChE inhibition assay. Format: biochemical.
Experiment [2] concerns the target T1, hCES2A. Put plainly: dialysis assay. In kind it is biochemical. The settings on record: 10 μmol/L, 33 min preincubation, dialysis 2 and 4 h.
Experiment [3] concerns irinotecan-triggered gut toxicity (ITGT) in tumor-bearing mice. Put plainly: irinotecan-triggered gut toxicity in tumor-bearing mice. The following applies: C3 25 and 50 mg/kg; LPA 10 mg/kg. Format: in vivo, C57BL/6J mice.
Where [4] appears, read: IC50 (nmol/L) 3 min, 3 min pre-incubation, FD substrate.
[5] abbreviates: IC50 (nmol/L) 33 min, 33 min pre-incubation, FD substrate.

The source of these data is paper PMC12541620 (Acta Pharmaceutica Sinica. B, 2025).

Like-named read-outs stand apart in the source and are kept apart here.

hAChE, sequence (P22303 32-614): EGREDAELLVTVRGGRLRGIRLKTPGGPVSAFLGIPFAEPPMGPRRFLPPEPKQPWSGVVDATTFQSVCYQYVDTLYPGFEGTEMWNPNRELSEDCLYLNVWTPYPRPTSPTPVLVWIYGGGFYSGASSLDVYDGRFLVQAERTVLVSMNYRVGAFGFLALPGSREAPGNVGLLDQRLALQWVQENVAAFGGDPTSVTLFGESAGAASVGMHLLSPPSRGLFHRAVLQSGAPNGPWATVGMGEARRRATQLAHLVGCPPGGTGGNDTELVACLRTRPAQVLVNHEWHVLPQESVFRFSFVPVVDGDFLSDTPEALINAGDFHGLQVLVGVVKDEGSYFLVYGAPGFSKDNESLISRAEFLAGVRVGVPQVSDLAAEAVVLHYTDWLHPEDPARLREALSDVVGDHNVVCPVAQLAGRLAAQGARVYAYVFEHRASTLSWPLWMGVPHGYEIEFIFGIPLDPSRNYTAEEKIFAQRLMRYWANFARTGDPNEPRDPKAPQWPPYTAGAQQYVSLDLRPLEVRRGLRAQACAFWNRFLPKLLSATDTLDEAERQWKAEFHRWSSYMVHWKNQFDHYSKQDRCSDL

As a reminder, the IC50 is the concentration that inhibits the measured activity by half. A lower IC50 goes with inhibition by little substance. Take `COc1ccccc1/C=C1\Cc2cc(OC)c(OC)cc2C1=O` [Compound B4]: half-maximal inhibition on hCES2A [1] (IC50) was put at 5500 nM.

Turning to `COc1cc2c(cc1OC)C(=O)/C(=C/c1ccccc1Cl)C2` [Compound B2], at hCES2A [1], it took 12100 nM to reach half-maximal inhibition (IC50).

As to `COc1ccc(/C=C2\Cc3cc(OC)c(OC)cc3C2=O)cc1` [Compound B6], the IC50 against hCES2A [1] stood at 17900 nM.

In the case of `COc1cc2c(cc1OC)C(=O)/C(=C/c1ccccc1O)C2` [Compound B7], the anti-hAChE activity entry at hAChE is “very weak anti-hAChE activity”. The “enhancement of anti-hCES2A effect relative to A3” value at hCES2A [1] is 8.36 folds. For the same compound, at hCES2A [1], the Ratio turned out to be 0.33. The IC50 was found to be 106 ± 15.5 nM against hCES2A [1] (setting [4]); 325 ± 59.5 nM on hCES2A [1] (setting [5]); 110 nM on hCES2A [1] (IC50 against hCES2A, FD substrate, 3 min preincubation).

As to `COc1cc2c(cc1OC)C(=O)/C(=C/c1c(O)cccc1Br)C2` [Compound B20], the IC50 against hCES2A [1] was determined as 290 nM.

In the case of `COc1cc2c(cc1OC)C(=O)/C(=C/c1ccccc1OC(=O)N1CCC(N3CCCCC3)CC1)C2` [Compound C8], the Ratio at hCES2A [1] is listed as 3.25. Moreover, the IC50 came to 732 ± 71.7 nM on hCES2A [1] (setting [4]) and 225 ± 13.4 nM against hCES2A [1] (setting [5]).

`COc1cc2c(cc1OC)C(=O)/C(=C/c1ccc(F)cc1)C2` [Compound B1] displayed an IC50 at hCES2A [1] of 20900 nM.

As for `COc1cc2c(cc1OC)C(=O)/C(=C/c1cccc(OC)c1O)C2` [Compound B21], on hCES2A [1], inhibition was half-maximal at 400 nM (IC50).

The compound `COc1cc2c(cc1OC)C(=O)/C(=C/c1ccccc1F)C2` [Compound B3] came in with an IC50 against hCES2A [1] of 2970 nM.

As for `COc1cc2c(cc1OC)C(=O)/C(=C/c1ccccc1OC(=O)N1CCN(C)CC1)C2` [Compound C7], the Ratio on hCES2A [1] stood at 7.32. For the same compound, the IC50 was 258 ± 37.8 nM on hCES2A [1] (setting [4]) and 35.3 ± 3.67 nM against hCES2A [1] (setting [5]).

Take `COc1cc2c(cc1OC)C(=O)C(CC1CCN(Cc3ccccc3)CC1)C2` (centres unmarked) [Donepezil, reference compound]: the IC50 against hCES2A [1] worked out at 3910 nM.

Compound `COc1cccc(/C=C2\Cc3cc(OC)c(OC)cc3C2=O)c1` [Compound B5] had an IC50 against hCES2A [1] of 64800 nM.

On to `CN(C)C(=O)C(CCN1CCC(O)(c2ccc(Cl)cc2)CC1)(c1ccccc1)c1ccccc1` [LPA, loperamide], for which the “hCES2A activity after dialysis” value on hCES2A [2] is “gradually recovering trend over time”. For the same compound, the “elevated colon IL-6, IL-1β and TNF-α levels” value in experiment [3] is on record as “reversed”.
